In PMC11284788, “NN1213 – A Potent, Long-Acting, and Selective Analog of Human Amylin” (Journal of Medicinal Chemistry, 2024):
Read-outs that look alike come from different tables or passages of the source. Numbered stars: 1 amine (or outer) side, 2 acyl side, 3 side chain; on linkers, the order of the positions; unused ones are H or OH. Bridge positions count the residues as written; N and C are the ends. Peptide text beside a SMILES is read from it. * marks the point of attachment. C20 diacid = O=C(O)CCCCCCCCCCCCCCCCCCC(=O)*; γGlu = O=C(O)[C@H](CCC(=O)[*:2])N[*:1]; AEEA = NCCOCCOCC(=O)O

Legend:
rats = assay: Acute food intake in rats; assay type: in vivo, rat; conditions: single sc injection of 30 nmol/kg, relative to vehicle, mean ± SEM, n = 5–7 per group
rAMY3R = molecular target: T1, rAMY3R (Rattus norvegicus, UniProt P32214+Q9JJ73); assay: scintillation proximity binding assay, rAMY3R membranes; design: expressed in transfected cells; host or cells: BHK tk-ts 13, transient co-transfection (FuGENE 6); conditions: for ratio rCTR/rAMY3R: ratio of binding IC50 values
T1 sequence (P32214 25-479 isoform P32214-2 limits assumed): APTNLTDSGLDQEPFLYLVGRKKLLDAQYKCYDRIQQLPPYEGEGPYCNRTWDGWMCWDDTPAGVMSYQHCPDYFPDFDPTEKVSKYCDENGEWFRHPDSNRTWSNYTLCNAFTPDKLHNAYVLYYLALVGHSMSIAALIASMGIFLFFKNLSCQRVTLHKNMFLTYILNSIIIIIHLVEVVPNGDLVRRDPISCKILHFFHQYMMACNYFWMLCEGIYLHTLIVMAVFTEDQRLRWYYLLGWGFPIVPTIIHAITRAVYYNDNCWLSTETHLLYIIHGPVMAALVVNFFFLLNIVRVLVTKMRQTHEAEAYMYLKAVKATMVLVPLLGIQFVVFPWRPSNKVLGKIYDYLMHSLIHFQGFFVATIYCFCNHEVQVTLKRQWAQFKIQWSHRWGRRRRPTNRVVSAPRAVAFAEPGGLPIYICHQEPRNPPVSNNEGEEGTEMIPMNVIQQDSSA
T1 sequence (Q9JJ73 23-147 partner): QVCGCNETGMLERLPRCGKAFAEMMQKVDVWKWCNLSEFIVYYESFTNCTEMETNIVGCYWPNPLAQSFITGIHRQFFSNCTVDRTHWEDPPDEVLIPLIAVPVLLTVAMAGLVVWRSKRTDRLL

hAMY3R = molecular target: T2, hAMY3R (Homo sapiens, UniProt O60896+P30988); assay: scintillation proximity binding assay, hAMY3R membranes; design: expressed in transfected cells; host or cells: BHK tk-ts 13, transient co-transfection; membranes for the SPA, whole cells for the species-specific assays; conditions: for ratio hCTR/hAMY3R: ratio of binding IC50 values
T2 sequence (P30988 25-474): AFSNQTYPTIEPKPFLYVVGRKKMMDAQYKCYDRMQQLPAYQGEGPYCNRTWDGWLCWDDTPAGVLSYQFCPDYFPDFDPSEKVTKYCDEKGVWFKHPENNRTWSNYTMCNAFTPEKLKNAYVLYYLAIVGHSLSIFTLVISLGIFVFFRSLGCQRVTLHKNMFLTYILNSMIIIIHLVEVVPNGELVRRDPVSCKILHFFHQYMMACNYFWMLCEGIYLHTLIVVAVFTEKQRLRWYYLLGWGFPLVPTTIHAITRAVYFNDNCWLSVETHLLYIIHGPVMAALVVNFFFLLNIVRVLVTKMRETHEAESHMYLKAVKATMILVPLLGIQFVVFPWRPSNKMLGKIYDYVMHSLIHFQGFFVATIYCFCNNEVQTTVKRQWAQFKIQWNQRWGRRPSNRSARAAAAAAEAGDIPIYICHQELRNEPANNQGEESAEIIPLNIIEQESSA
T2 sequence (O60896 24-148 partner): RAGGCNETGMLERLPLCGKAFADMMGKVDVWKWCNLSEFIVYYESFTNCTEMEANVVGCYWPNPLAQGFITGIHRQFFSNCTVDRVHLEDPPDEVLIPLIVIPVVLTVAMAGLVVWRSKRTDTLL

[1] = SPA binding assay, Tables S13 and S15

Row | SMILES | Acute food intake reduction 24–48 h (rats) [%] | ratio rCTR/rAMY3R (rAMY3R) | ratio hCTR/hAMY3R (hAMY3R) | rAMY3R pIC50 (rAMY3R; [1]) | hAMY3R pIC50 (hAMY3R; [1]) | IC50 (rAMY3R; SPA binding assay, Tables S13 and S15, read-out: rAMY3R pIC50 (converted)) [pM] | IC50 (rAMY3R; SPA, BHK cell membranes, 125I-rat amylin, 120 min 25 °C, read-out: rAMY3R IC50) [pM] | IC50 (hAMY3R; SPA binding assay, Tables S13 and S15, read-out: hAMY3R pIC50 (converted)) [pM] | IC50 (hAMY3R; SPA, BHK cell membranes, 125I-rat amylin, 120 min 25 °C, read-out: hAMY3R IC50) [pM] | Acute food intake reduction 0–24 h (rats) [%]
1 | CC[C@H](C)[C@H](NC(=O)[C@H](C)NC(=O)CNC(=O)[C@H](Cc1ccccc1)NC(=O)[C@H](CC(N)=O)NC(=O)[C@@H]1CCCN1C(=O)[C@H](CO)NC(=O)[C@H](CO)NC(=O)[C@H](Cc1c[nH]cn1)NC(=O)[C@H](CCCNC(=N)N)NC(=O)[C@H](CC(C)C)NC(=O)[C@H](Cc1ccccc1)NC(=O)[C@H](CC(N)=O)NC(=O)[C@H](C)NC(=O)[C@H](CC(C)C)NC(=O)[C@H](CCCNC(=N)N)NC(=O)[C@H](CCC(N)=O)NC(=O)[C@@H](NC(=O)[C@H](C)NC(=O)[C@@H]1CSSC[C@H](NC(=O)[C@H](CCCCN)NC(=O)COCCOCCNC(=O)CC[C@H](NC(=O)CCCCCCCCCCCCCCCCCCC(=O)O)C(=O)O)C(=O)N[C@@H](CC(N)=O)C(=O)N[C@@H]([C@@H](C)O)C(=O)N[C@@H](C)C(=O)N[C@@H]([C@@H](C)O)C(=O)N1)[C@@H](C)O)C(=O)N1CCC[C@H]1C(=O)N[C@@H](CO)C(=O)N[C@@H](CO)C(=O)N[C@H](C(=O)N[C@@H](CC(N)=O)C(=O)N[C@H](C(=O)NCC(=O)N[C@@H](CO)C(=O)N[C@@H](Cc1c[nH]cn1)C(=O)N[C@H](C(=O)N[C@@H](Cc1ccc(O)cc1)C(N)=O)[C@@H](C)O)C(C)C)[C@@H](C)O [Peptide 18] ({C20 diacid-γGlu-AEEA}-KCNTATCATQRLANFLRHSSPNFGAIPSSTNVGSHTY-NH2; disulfide 2-7; N-terminus assumed) | 3 ± 6 | 57 | 19 |  |  |  |  |  |  | 
2 | CC[C@H](C)[C@H](NC(=O)[C@H](C)NC(=O)CNC(=O)[C@H](Cc1ccccc1)NC(=O)[C@H](CC(N)=O)NC(=O)[C@@H]1CCCN1C(=O)[C@H](CO)NC(=O)[C@H](CO)NC(=O)[C@H](Cc1c[nH]cn1)NC(=O)[C@H](CCCNC(=N)N)NC(=O)[C@H](CC(C)C)NC(=O)[C@H](Cc1ccccc1)NC(=O)[C@H](CC(N)=O)NC(=O)[C@H](C)NC(=O)[C@H](CC(C)C)NC(=O)[C@H](CCCNC(=N)N)NC(=O)[C@H](CCC(N)=O)NC(=O)[C@@H](NC(=O)[C@H](C)NC(=O)[C@@H]1CSSC[C@H](NC(=O)[C@H](CCCNC(=N)N)NC(=O)CNC(=O)CC[C@H](NC(=O)CCCCCCCCCCCCCCCCCCC(=O)O)C(=O)O)C(=O)N[C@@H](CC(N)=O)C(=O)N[C@@H]([C@@H](C)O)C(=O)N[C@@H](C)C(=O)N[C@@H]([C@@H](C)O)C(=O)N1)[C@@H](C)O)C(=O)N1CCC[C@H]1C(=O)N[C@@H](CO)C(=O)N[C@@H](CO)C(=O)N[C@H](C(=O)N[C@@H](CC(N)=O)C(=O)N[C@H](C(=O)NCC(=O)N[C@@H](CO)C(=O)N[C@@H](Cc1c[nH]cn1)C(=O)N[C@H](C(=O)N[C@@H](Cc1ccc(O)cc1)C(N)=O)[C@@H](C)O)C(C)C)[C@@H](C)O [Peptide 19] ({C20 diacid-γGlu}-GRCNTATCATQRLANFLRHSSPNFGAIPSSTNVGSHTY-NH2; disulfide 3-8) | 6 ± 7 | 84 | 45 | 9.69 | 9.46 |  |  |  |  | 
3 | CC[C@H](C)[C@H](NC(=O)[C@H](C)NC(=O)CNC(=O)[C@H](Cc1ccccc1)NC(=O)[C@H](CC(N)=O)NC(=O)[C@@H]1CCCN1C(=O)[C@H](CO)NC(=O)[C@H](CO)NC(=O)[C@H](Cc1c[nH]cn1)NC(=O)[C@H](CCCNC(=N)N)NC(=O)[C@H](CC(C)C)NC(=O)[C@H](Cc1ccccc1)NC(=O)[C@H](CC(N)=O)NC(=O)[C@H](C)NC(=O)[C@H](CC(C)C)NC(=O)[C@H](CCCNC(=N)N)NC(=O)[C@H](CCC(N)=O)NC(=O)[C@@H](NC(=O)[C@H](C)NC(=O)[C@@H]1CSSC[C@H](NC(=O)[C@@H](N)CCCCNC(=O)CC[C@H](NC(=O)CCCCCCCCCCCCCCCCCCC(=O)O)C(=O)O)C(=O)N[C@@H](CC(N)=O)C(=O)N[C@@H]([C@@H](C)O)C(=O)N[C@@H](C)C(=O)N[C@@H]([C@@H](C)O)C(=O)N1)[C@@H](C)O)C(=O)N1CCC[C@H]1C(=O)N[C@@H](CO)C(=O)N[C@@H](CO)C(=O)N[C@H](C(=O)N[C@@H](CC(N)=O)C(=O)N[C@H](C(=O)NCC(=O)N[C@@H](CO)C(=O)N[C@@H](CCCCN)C(=O)N[C@H](C(=O)N[C@@H](Cc1ccc(O)cc1)C(N)=O)[C@@H](C)O)C(C)C)[C@@H](C)O [Peptide 14] | 15 ± 4 | 60 | 48 |  |  | 912 | 920 | 891 | 885 | 
4 | CC[C@H](C)[C@H](NC(=O)[C@H](C)NC(=O)CNC(=O)[C@H](Cc1ccccc1)NC(=O)[C@H](CC(N)=O)NC(=O)[C@@H]1CCCN1C(=O)[C@H](CO)NC(=O)[C@H](CO)NC(=O)[C@H](Cc1c[nH]cn1)NC(=O)[C@H](CCCNC(=N)N)NC(=O)[C@H](CC(C)C)NC(=O)[C@H](Cc1ccccc1)NC(=O)[C@H](CC(N)=O)NC(=O)[C@H](C)NC(=O)[C@H](CC(C)C)NC(=O)[C@H](CCCNC(=N)N)NC(=O)[C@H](CCC(N)=O)NC(=O)[C@@H](NC(=O)[C@H](C)NC(=O)[C@@H]1CSSC[C@H](NC(=O)[C@H](CCCCN)NC(=O)CC[C@H](NC(=O)CCCCCCCCCCCCCCCCCCC(=O)O)C(=O)O)C(=O)N[C@@H](CC(N)=O)C(=O)N[C@@H]([C@@H](C)O)C(=O)N[C@@H](C)C(=O)N[C@@H]([C@@H](C)O)C(=O)N1)[C@@H](C)O)C(=O)N1CCC[C@H]1C(=O)N[C@@H](CO)C(=O)N[C@@H](CO)C(=O)N[C@H](C(=O)N[C@@H](CC(N)=O)C(=O)N[C@H](C(=O)NCC(=O)N[C@@H](CO)C(=O)N[C@@H](CCCCN)C(=O)N[C@H](C(=O)N[C@@H](Cc1ccc(O)cc1)C(N)=O)[C@@H](C)O)C(C)C)[C@@H](C)O [Peptide 13] | 25 ± 7 | 52 | 64 | 8.77 | 8.94 |  |  |  |  | 37 ± 7
5 | CC[C@H](C)[C@H](NC(=O)[C@H](C)NC(=O)CNC(=O)[C@H](Cc1ccccc1)NC(=O)[C@H](CC(N)=O)NC(=O)[C@@H]1CCCN1C(=O)[C@H](CO)NC(=O)[C@H](CO)NC(=O)[C@H](Cc1c[nH]cn1)NC(=O)[C@H](CCCNC(=N)N)NC(=O)[C@H](CC(C)C)NC(=O)[C@H](Cc1ccccc1)NC(=O)[C@H](CCC(=O)O)NC(=O)[C@H](C)NC(=O)[C@H](CC(C)C)NC(=O)[C@H](CCCNC(=N)N)NC(=O)[C@H](CCC(N)=O)NC(=O)[C@@H](NC(=O)[C@H](C)NC(=O)[C@@H]1CSSC[C@H](NC(=O)[C@H](CCCCN)NC(=O)CC[C@H](NC(=O)CCCCCCCCCCCCCCCCCCC(=O)O)C(=O)O)C(=O)N[C@@H](CC(N)=O)C(=O)N[C@@H]([C@@H](C)O)C(=O)N[C@@H](C)C(=O)N[C@@H]([C@@H](C)O)C(=O)N1)[C@@H](C)O)C(=O)N1CCC[C@H]1C(=O)N[C@@H](CO)C(=O)N[C@@H](CO)C(=O)N[C@H](C(=O)N[C@@H](CC(N)=O)C(=O)N[C@H](C(=O)NCC(=O)N1CCC[C@H]1C(=O)N[C@@H](CC(N)=O)C(=O)N[C@H](C(=O)N[C@@H](Cc1ccc(O)cc1)C(N)=O)[C@@H](C)O)C(C)C)[C@@H](C)O [Peptide 12] ({C20 diacid-γGlu}-KCNTATCATQRLAEFLRHSSPNFGAIPSSTNVGPNTY-NH2; disulfide 2-7) | 7 ± 7 | 34 | 11 | 9.75 |  |  |  |  |  | 
